# Reference: patent publication US9206159B2, “Piperazine-piperidine compounds as hepatitis C virus inhibitors” (Theravance Biopharma R&D IP, LLC, priority 2012, dated 2015)
# Assays:
# [1] = test system: HCV genotype 1a replicon cell line; test: HCV Genotype 1a Replicon Assay; type: cell-based, hepatitis C virus; conditions: Huh7.5 cell background, NS3-specific protease activity in lysates, 48 or 72 hours; for EC50: Hepatitis C virus, read-out: Genotype 1a (pEC50 class) (converted)
# In short: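 Huh7.5-based subgenomic genotype 1a replicon cells, plated without G418, exposed to compound dose-responses (0.5% DMSO final) for 48 or 72 h at 37 °C. Lysate NS3/4a protease activity read with 15 μM FRET substrate, 20 min at 37 °C (Ex 340/Em 509 nm); EC50 from 4-parameter fit.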
# [2] = test system: HCV genotype 1b replicon cell line; test: HCV Genotype 1b Replicon Assay; type: cell-based, hepatitis C virus; conditions: Renilla luciferase readout, 48 hours; for Genotype 1b (pEC50 class): Huh7 cell background
# From the text: Assay 1: HCV Genotype 1b Replicon Assay
# The HCV genotype 1b replicon cell line was obtained from Apath LLC (Brooklyn, N.Y.) (APC144; Huh7 cell background). This subgenomic replicon contains the N-terminus of the HCV core protein fused to the neomycin-resistance selectable marker. The EMCV IRES lies downstream and drives expression of humanized Renilla luciferase fused to the non-structural proteins NS3-NS5B. This cell line was used to determine compound potency using the luciferase activity readout as a measurement of compound inhibition of replicon levels.
# Cells were grown at 37° C. in a 5% CO2 humidified incubator in DMEM (Invitrogen) with 10% FBS (HyClone), 1×NEAA (Invitrogen), 1× Pen-Strep (Invitrogen), and 500 μg/mL G418 (Invitrogen). On day 1 of the assay, cells were plated at 10,000 cells/well in white 96-well tissue culture plates (Costar) in 200 μL media lacking G418. Four hours later, once the cells have adhered, the media was removed and replaced with media (no G418) containing dose-responses of test compounds. Compounds were initially diluted in DMSO and then diluted another 200× in media to bring the final DMSO concentration down to 0.5%. The cells were incubated with test compounds for 48 hours. At the end of the incubation period, media and compound were removed from the plates and the luciferase activity was determined using Promega Renilla-Glo reagents.
# To analyze the data, the luciferase activity was plotted vs. the compound concentration, and EC50 values were determined from a 4-parameter robust fit model with the GraphPad Prism software package (GraphPad Software, Inc., San Diego, Calif.). Results are expressed as the negative decadic logarithm of the EC50 value, pEC50.
# Test compounds having a higher pEC50 value in this assay show greater inhibition of HCV genotype 1b replication.
SMILES,Genotype 1a (pEC50 class) [1],EC50 [1] [nM],other results
COC(=O)N[C@H](C(=O)N1CCC[C@H]1c1nc(-c2ccc(-c3ccc(NC(=O)N4CCN(C5CCN(C(=O)C6CC6)CC5)CC4)cc3OC(F)(F)F)cc2)c[nH]1)C(C)C [Example 1-13],"C (C represents pEC50 between and 9 and about 10, (EC50 between 1 nM and 0.1 nM))",–,Genotype 1b (pEC50 class) [2]: D (D represents pEC50>10 (EC50<0.1 nM))
"COC(=O)N[C@H](C(=O)N1C[C@@H](C)C[C@H]1c1nc2c(ccc3cc(-c4ccc(NC(=O)N5CCN(C6CCN(C(=O)C7CC7)CC6)CC5)cc4OC(F)(F)F)ccc32)[nH]1)C(C)C [Example 16, ((S)-1-{(2S,4S)-2-[7-(4-{[4-(1-Cyclopropanecarbonyl-piperidin-4-yl)-piperazine-1-carbonyl]-amino}-2-trifluoromethoxy-phenyl)-3H-naphth[1,2-d]imidazol-2-yl]-4-methyl-pyrrolidine-1-carbonyl}-2-methyl-propyl)-carbamic acid methyl ester]",–,< 0.1,"EC50 ([2]; Hepatitis C virus, Huh-7, Huh7 cell background, read-out: Genotype 1b (pEC50 class) (converted)): < 0.1 nM"
COC(=O)N[C@H](C(=O)N1C[C@@H](C)C[C@H]1c1nc(-c2ccc(-c3ccc(NC(=O)N4CCN(C5CCN(C(=O)C6CCC6)CC5)CC4)cc3OC(F)(F)F)cc2)c[nH]1)C(C)C [Example 2-19],"C (C represents pEC50 between and 9 and about 10, (EC50 between 1 nM and 0.1 nM))",–,Genotype 1b (pEC50 class) [2]: D (D represents pEC50>10 (EC50<0.1 nM))
COC(=O)N[C@H](C(=O)N1C[C@@H](C)C[C@H]1c1nc(-c2ccc(-c3cc(F)c(NC(=O)N4CCN(C5CCN(C(=O)OC(C)(C)C)CC5)CC4)cc3OC(F)(F)F)cc2)c[nH]1)C(C)C [Example 2-2],D (D represents pEC50>10 (EC50<0.1 nM)),–,–
COC(=O)N[C@H](C(=O)N1C[C@@H](C)C[C@H]1c1nc(-c2ccc(-c3ccc(NC(=O)N4CCC(N5CCN(C(=O)C(C)(C)C)CC5)CC4)cc3OC(F)(F)F)cc2)c[nH]1)C(C)C [Example 4-10],"C (C represents pEC50 between and 9 and about 10, (EC50 between 1 nM and 0.1 nM))",–,–
CNC(=O)N1CCC(N2CCN(C(=O)Nc3ccc(-c4ccc(-c5c[nH]c([C@@H]6CCCN6C(=O)[C@@H](NC(=O)OC)C(C)C)n5)cc4)cc3)CC2)CC1 [Example 1-7],B (B represents pEC50 between 8 and 9 (EC50 between 1 and 10 nM)),–,–
COC(=O)N[C@H](C(=O)N1C[C@@H](C)C[C@H]1c1nc(-c2ccc(-c3ccc(NC(=O)N4CCC(N5CCN(C(=O)[C@H]6CC6(C)C)CC5)CC4)cc3OC(F)(F)F)cc2)c[nH]1)C(C)C [Example 4-11],"C (C represents pEC50 between and 9 and about 10, (EC50 between 1 nM and 0.1 nM))",–,–
COC(=O)N[C@H](C(=O)N1[C@@H](C)CC[C@H]1c1nc(-c2ccc(-c3ccc(NC(=O)N4CCN(C5CCN(C(=O)C6CC6)CC5)CC4)cc3OC(F)(F)F)cc2)c[nH]1)C(C)C [Example 8-4],–,0.1 to 1,–
"COC(=O)N[C@H](C(=O)N1C[C@@H](C)C[C@H]1c1nc(-c2ccc(-c3ccc(NC(=O)N4CCN(C5CCN(C(=O)C(C)(C)C)CC5)CC4)cc3OC(F)(F)F)cc2)c(F)[nH]1)C(C)C [Example 8, [(S)-1-((2S,4S)-2-{4-[4′-({4-[1-(2,2-Dimethyl-propionyl)-piperidin-4-yl]-piperazine-1-carbonyl}-amino)-2′-trifluoromethoxy-biphenyl-4-yl]-5-fluoro-1H-imidazol-2-yl}-4-methyl-pyrrolidine-1-carbonyl)-2-methyl-propyl]-carbamic acid methyl ester]",–,< 0.1,–
CNC(=O)N1CCN(C2CCN(C(=O)Nc3cc(OC(F)(F)F)c(-c4ccc(-c5c[nH]c([C@@H]6C[C@H](C)CN6C(=O)[C@@H](NC(=O)OC)C(C)C)n5)cc4)cc3Cl)CC2)C[C@@H]1C [Example 4-4],B (B represents pEC50 between 8 and 9 (EC50 between 1 and 10 nM)),–,–
COC(=O)N[C@H](C(=O)N1C[C@@H](C)C[C@H]1c1nc(-c2ccc(-c3ccc(NC(=O)N4CCN(C5CCN(C(=O)C(C)(C)CO)CC5)CC4)cc3OC(F)(F)F)cc2)c[nH]1)C(C)C [Example 2-29],"C (C represents pEC50 between and 9 and about 10, (EC50 between 1 nM and 0.1 nM))",–,–
COC(=O)N[C@H](C(=O)N1CCC[C@H]1c1nc(-c2ccc(-c3ccc(NC(=O)N4CC5CCC(C4)N5C4CCN(C(=O)OC(C)(C)C)CC4)cc3OC(F)(F)F)cc2)c[nH]1)C(C)C [Example 8-2],–,0.1 to 1,–
COC(=O)N[C@H](C(=O)N1C[C@@H](C)C[C@H]1c1nc2c(ccc3cc(-c4ccc(NC(=O)N5CCN(C6CCN(C(=O)OC(C)(C)C)CC6)CC5)cc4OC(F)(F)F)ccc32)[nH]1)C(C)C [Example 6-2],–,< 0.1,–
COC(=O)N[C@H](C(=O)N1C[C@@H](C)C[C@H]1c1nc2c(ccc3cc(-c4ccc(NC(=O)N5CCN(C6CCN(C(=O)C(C)(C)CO)CC6)CC5)cc4OC(F)(F)F)ccc32)[nH]1)C1CCOCC1 [Example 7-3],–,0.1 to 1,–
COC(=O)N[C@H](C(=O)N1[C@@H](C)CC[C@H]1c1nc(-c2ccc(-c3ccc(NC(=O)N4CCN(C5CCN(C(=O)[C@H]6CC6(C)C)CC5)CC4)cc3OC(F)(F)F)cc2)c[nH]1)C(C)C [Example 8-5],–,0.1 to 1,–
COC(=O)N[C@H](C(=O)N1C[C@@H](C)C[C@H]1c1nc(-c2ccc(-c3cc(Cl)c(NC(=O)N4CCN(C5CCN(C(=O)[C@H]6CC6(C)C)CC5)CC4)cc3OC(F)(F)F)cc2)c[nH]1)C(C)C [Example 3],"C (C represents pEC50 between and 9 and about 10, (EC50 between 1 nM and 0.1 nM))",–,–
COC(=O)N[C@H](C(=O)N1C[C@@H](C)C[C@H]1c1nc(-c2ccc(-c3cc(F)c(NC(=O)N4CCN(C5CCN(C(=O)C6CC6(Cl)Cl)CC5)CC4)cc3OC(F)(F)F)cc2)c[nH]1)C(C)C (some centres unmarked) [Example 2-15],"C (C represents pEC50 between and 9 and about 10, (EC50 between 1 nM and 0.1 nM))",–,–
COC(=O)N[C@H](C(=O)N1C[C@@H](OC)C[C@H]1c1nc(-c2ccc(-c3ccc(NC(=O)N4CCN(C5CCN(C(=O)[C@H]6CC6(C)C)CC5)CC4)cc3OC(F)(F)F)cc2)c[nH]1)C(C)C [Example 5-2],"C (C represents pEC50 between and 9 and about 10, (EC50 between 1 nM and 0.1 nM))",–,–
COC(=O)N[C@H](C(=O)N1CCC[C@H]1c1nc(-c2ccc(-c3cc(F)c(NC(=O)N4CCN(C5CCN(C(=O)[C@H]6CC6(C)C)CC5)CC4)cc3OC(F)(F)F)cc2)c[nH]1)C(C)C [Example 1-26],"C (C represents pEC50 between and 9 and about 10, (EC50 between 1 nM and 0.1 nM))",–,–
COC(=O)N[C@H](C(=O)N1CCC[C@H]1c1nc(-c2ccc(-c3ccc(NC(=O)N4CCC(N5CCN(C(=O)OC)CC5)CC4)cc3)cc2)c[nH]1)C(C)C [Example 3-6],A (A represents a pEC50 value between 6 and 8 (EC50 between 1 μM and 10 nM)),–,–
COC(=O)N[C@H](C(=O)N1C[C@@H](C)C[C@H]1c1nc(-c2ccc(-c3cc(Cl)c(NC(=O)N4CCN(C5CCN(C(=O)C6CC(F)(F)C6)CC5)CC4)cc3OC(F)(F)F)cc2)c[nH]1)C(C)C [Example 2-22],B (B represents pEC50 between 8 and 9 (EC50 between 1 and 10 nM)),–,–
"COC(=O)N[C@H](C(=O)N1C[C@@H](C)C[C@H]1c1nc(-c2ccc(-c3cc(Cl)c(NC(=O)N4CCC(N5CCN(C(=O)C(C)(C)C)C[C@@H]5C)CC4)cc3OC(F)(F)F)cc2)c[nH]1)C(C)C [Example 12, [(S)-1-((2S,4S)-2-{4-[5′-Chloro-4′-({4-[(S)-4-(2,2-dimethyl-propionyl)-2-methyl-piperazin-1-yl]-piperidine-1-carbonyl}-amino)-2′-trifluoromethoxy-biphenyl-4-yl]-1H-imidazol-2-yl}-4-methyl-pyrrolidine-1-carbonyl)-2-methyl-propyl]-carbamic acid methyl ester]",–,0.1 to 1,–
COC(=O)N[C@H](C(=O)N1C[C@@H](OC)C[C@H]1c1nc(-c2ccc(-c3ccc(NC(=O)N4CCN(C5CCN(C(=O)C(C)(C)C)CC5)CC4)cc3OC(F)(F)F)cc2)c[nH]1)C(C)C [Example 5-1],–,0.1 to 1,–
COC(=O)N[C@H](C(=O)N1CCC[C@H]1c1nc(-c2ccc(-c3ccc(NC(=O)N4CCC(N5CCN(C(=O)OC(C)(C)C)CC5)CC4)cc3)cc2)c[nH]1)C(C)C [Example 3-1],A (A represents a pEC50 value between 6 and 8 (EC50 between 1 μM and 10 nM)),–,–
COC(=O)NC(C(=O)N1CCCC1c1nc(-c2ccc(-c3ccc(NC(=O)N4CCN(C5CCN(C(=O)C6CC6)CC5)C(CO)C4)cc3OC(F)(F)F)cc2)c[nH]1)C(C)C (centres unmarked) [Example 1-44],A (A represents a pEC50 value between 6 and 8 (EC50 between 1 μM and 10 nM)),–,–
COC(=O)N[C@H](C(=O)N1C[C@@H](C)C[C@H]1c1nc(-c2ccc(-c3cc(Cl)c(NC(=O)N4CCC(N5CCN(C(=O)C6CC6)CC5)CC4)cc3OC(F)(F)F)cc2)c[nH]1)C(C)C [Example 4-15],B (B represents pEC50 between 8 and 9 (EC50 between 1 and 10 nM)),–,–
